Results as given in patent US20080064668A1, “1,3-Diacylated, 26,27-Alkyl/Haloakyl Vitamin D3 Compounds and Methods of Use Thereof” (BioXell S.p.A., priority 2003, published 2008).

Key:
[1] = test system: rats with CYP-induced cystitis; assay: Cyclophosphamide (CYP) induced chronic IC in rats, cystometry; format: in vivo, Wistar rats
Text: The rat model of chemical cystitis induced by intraperitoneal injection of CYP has been well accepted. CYP is used in clinical practice in the treatment of a number of malignant tumors. One of its metabolites, acrolein, is excreted in urine in large concentrations causing hemorrhagic cystitis associated with symptoms of urinary frequency, urgency and pelvic pain. The inflammatory process is characterized by changes in gross histology of bladder, increase in number and distribution of inflammatory cell infiltrates (mast cells, macrophage, PMNs), cyclo-oxygenase-2 expression and prostaglandin production, growth factor and cytokine production. […]
This model was used to test the effects of 1,25-dihydroxyvitamin D3 analogue in rats with CYP-induced cystitis. The effects of the treatment on the cystometric parameters in a conscious freely moving rat with CYP-induced cystitis were monitored. The following cystometric parameters were recorded in each animal: bladder capacity, filling pressure (pressure at the beginning of the bladder filling), threshold pressure (bladder pressure immediately prior to micturition), micturition pressure (the maximal bladder pressure during micturition), presence or absence of non-voiding bladder contractions (increases in bladder pressure of at least 10 cm H20 without release of urine), and amplitude of non-voiding bladder contraction. […]

RT4 = assay: Proliferation assay using bladder cancer cell lines, RT4; format: cell-based, human; conditions: Homo sapiens, RT-4, 72 h, 72 h culture, CyQuant proliferation assay
Protocol: Bladder cancer cell lines (T24, RT112, HT1376 and RT4 are human bladder cancer cell lines; NHEK are normal human keratinocytes) were obtained from the European Collection of Cell Cultures (Salisbury, UK). Cells were plated at 3×10^3 per well, in flat bottomed 96-well plates in 100 μl of DMEM medium containing: 5% Fetal Clone I, 50 μg/l gentamicin, 1 mM sodium pyruvate and 1% non-essential amino acids. After culturing for 24 h at 37° C. in 5% CO2, to allow cells to adhere to the plates, VDR ligands (compounds (2), (4), (5) and other vitamin D3 analogs as shown in Table 4) were added at concentrations ranging from 100 μM to 0.3 μM in 100 μl of above-mentioned complete medium. After a further 72 h of culture, cell proliferation was measured using a fluorescence-based proliferation assay kit. (CyQuant Cell Proliferation Assay Kit, Molecular Probes, Eugene, Oreg., USA). The IC50 was calculated from the regression curve of the titration data.

NOD mouse body weight = format: in vivo, mice
Protocol: 1,3-Di-O-acetyl-1,25-dihydroxy-16,23Z-diene-26,27-hexafluoro-19-nor-cholecalciferol (2) was dissolved in ethanol (1 mg/ml) and then diluted in miglyol 812. […]

IFN-γ production = IFN-γ production in the mixed leukocyte response (MLR); format: cell-based; conditions: 120 h; allogeneic PBMC from 2 donors, 5 days, ELISA; read-out: INF-γ IC50
Protocol: Immature dendritic cells (DC) were prepared as described in Romani, N. et al. (Romani, N. et al. (1996) J. Immunol. Meth. 196:137). IFN-γ production by allogeneic T cell activation in the mixed leukocyte response (MLR) was determined as described in Penna, G., et al., J Immunol., 164: 2405-2411 (2000).
Briefly, peripheral blood mononuclear cells (PBMC) were separated from buffy coats by Ficoll gradient and the same number (3×10^5) of allogeneic PBMC from 2 different donors were co-cultured in 96-well flat-bottom plates. The vitamin D3 compounds were added to each of the cultures.

CC(=O)OC1C/C(=C/C=C2\CCC[C@]3(C)C(C(C)C/C=C\C(O)(C(F)(F)F)C(F)(F)F)=CCC23)C[C@@H](OC(C)=O)C1 (some centres unmarked) [Compound (2), 1,3-Di-O-acetyl-1,25-dihydroxy-16,23Z-diene-26,27-hexafluoro-19-nor-cholecalciferol]
ability to treat bladder dysfunction [1]: has the ability to treat bladder dysfunction | IC50 (RT4): 20 µM | effect on body weight (NOD mouse body weight; 0.1 mg/Kg or 0.2 mg/Kg dose): did not affect body weight | NOD mouse body weight (NOD mouse body weight; 0.1 mg/kg p.o., week 8): 22.07 g | NOD mouse body weight (NOD mouse body weight; 0.1 mg/kg p.o., week 9): 22.98 g | NOD mouse body weight (NOD mouse body weight; 0.1 mg/kg p.o., week 10): 22.77 g | NOD mouse body weight (NOD mouse body weight; 0.1 mg/kg p.o., week 11): 23.4 g | NOD mouse body weight (NOD mouse body weight; 0.1 mg/kg p.o., week 12): 24.01 g | NOD mouse body weight (NOD mouse body weight; 0.1 mg/kg p.o., week 13): 23.69 g | NOD mouse body weight (NOD mouse body weight; 0.1 mg/kg p.o., week 14): 24.1 g | NOD mouse body weight (NOD mouse body weight; 0.1 mg/kg p.o., week 15): 24.6 g | NOD mouse body weight (NOD mouse body weight; 0.1 mg/kg p.o., week 16): 25 g | NOD mouse body weight (NOD mouse body weight; 0.1 mg/kg p.o., week 17): 24.6 g | NOD mouse body weight (NOD mouse body weight; 0.1 mg/kg p.o., week 18): 25.1 g | NOD mouse body weight (NOD mouse body weight; 0.1 mg/kg p.o., week 19): 25.6 g | NOD mouse body weight (NOD mouse body weight; 0.1 mg/kg p.o., week 20): 25.2 g | NOD mouse body weight (NOD mouse body weight; 0.1 mg/kg p.o., week 21): 25.6 g | NOD mouse body weight (NOD mouse body weight; 0.1 mg/kg p.o., week 22): 25.8 g | NOD mouse body weight (NOD mouse body weight; 0.1 mg/kg p.o., week 23): 25.5 g | NOD mouse body weight (NOD mouse body weight; 0.1 mg/kg p.o., week 24): 26.8 g | NOD mouse body weight (NOD mouse body weight; 0.1 mg/kg p.o., week 25): 26.4 g | NOD mouse body weight (NOD mouse body weight; 0.1 mg/kg p.o., week 26): 26.7 g | NOD mouse body weight (NOD mouse body weight; 0.1 mg/kg p.o., week 27): 26.5 g | NOD mouse body weight (NOD mouse body weight; 0.2 mg/kg p.o., week 8): 21.25 g | NOD mouse body weight (NOD mouse body weight; 0.2 mg/kg p.o., week 9): 21.75 g | NOD mouse body weight (NOD mouse body weight; 0.2 mg/kg p.o., week 10): 22.06 g | NOD mouse body weight (NOD mouse body weight; 0.2 mg/kg p.o., week 11): 22.99 g | NOD mouse body weight (NOD mouse body weight; 0.2 mg/kg p.o., week 12): 24.21 g | NOD mouse body weight (NOD mouse body weight; 0.2 mg/kg p.o., week 13): 24.4 g | NOD mouse body weight (NOD mouse body weight; 0.2 mg/kg p.o., week 14): 24.34 g | NOD mouse body weight (NOD mouse body weight; 0.2 mg/kg p.o., week 15): 24.53 g | NOD mouse body weight (NOD mouse body weight; 0.2 mg/kg p.o., week 16): 25.01 g | NOD mouse body weight (NOD mouse body weight; 0.2 mg/kg p.o., week 17): 24.33 g | NOD mouse body weight (NOD mouse body weight; 0.2 mg/kg p.o., week 18): 24.89 g | NOD mouse body weight (NOD mouse body weight; 0.2 mg/kg p.o., week 19): 25.29 g | NOD mouse body weight (NOD mouse body weight; 0.2 mg/kg p.o., week 20): 24.9 g | NOD mouse body weight (NOD mouse body weight; 0.2 mg/kg p.o., week 21): 25.41 g | NOD mouse body weight (NOD mouse body weight; 0.2 mg/kg p.o., week 22): 26.36 g | NOD mouse body weight (NOD mouse body weight; 0.2 mg/kg p.o., week 23): 25.8 g | NOD mouse body weight (NOD mouse body weight; 0.2 mg/kg p.o., week 24): 25.63 g | NOD mouse body weight (NOD mouse body weight; 0.2 mg/kg p.o., week 25): 26.12 g | NOD mouse body weight (NOD mouse body weight; 0.2 mg/kg p.o., week 26): 27.15 g | NOD mouse body weight (NOD mouse body weight; 0.2 mg/kg p.o., week 27): 26.56 g | IC50 (IFN-γ production): 0.000722 µM
